Reference: ChEMBL document CHEMBL1909046, “DrugMatrix in vitro pharmacology data”

Legend:
[1] = molecular target: T1, Androgen receptor (Rattus norvegicus, UniProt P15207)
T1 sequence (P15207 whole entry): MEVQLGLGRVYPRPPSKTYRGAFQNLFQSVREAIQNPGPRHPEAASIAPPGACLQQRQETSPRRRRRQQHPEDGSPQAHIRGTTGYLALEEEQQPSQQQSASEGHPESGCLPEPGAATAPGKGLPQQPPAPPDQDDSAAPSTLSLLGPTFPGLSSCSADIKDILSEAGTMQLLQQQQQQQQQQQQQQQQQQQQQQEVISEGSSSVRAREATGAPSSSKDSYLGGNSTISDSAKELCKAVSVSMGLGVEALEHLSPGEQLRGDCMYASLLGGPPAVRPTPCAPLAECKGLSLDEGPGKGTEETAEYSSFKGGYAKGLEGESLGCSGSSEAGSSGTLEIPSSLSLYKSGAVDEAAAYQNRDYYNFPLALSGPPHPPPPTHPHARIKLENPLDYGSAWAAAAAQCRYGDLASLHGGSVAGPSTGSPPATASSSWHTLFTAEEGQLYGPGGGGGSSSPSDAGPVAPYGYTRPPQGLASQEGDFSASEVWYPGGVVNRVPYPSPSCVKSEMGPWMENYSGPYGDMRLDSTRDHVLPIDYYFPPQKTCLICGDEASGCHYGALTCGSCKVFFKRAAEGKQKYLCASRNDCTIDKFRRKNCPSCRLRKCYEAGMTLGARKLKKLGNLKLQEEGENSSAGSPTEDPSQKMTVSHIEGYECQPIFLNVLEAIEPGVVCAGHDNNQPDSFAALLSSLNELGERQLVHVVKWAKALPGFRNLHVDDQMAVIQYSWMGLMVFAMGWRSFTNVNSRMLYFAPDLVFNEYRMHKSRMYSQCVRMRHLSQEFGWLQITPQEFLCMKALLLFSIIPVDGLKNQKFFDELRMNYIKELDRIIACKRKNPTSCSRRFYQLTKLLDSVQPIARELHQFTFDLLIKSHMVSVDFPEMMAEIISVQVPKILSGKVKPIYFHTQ

[2] = molecular target: T2, Cytochrome P450 1A2 (Homo sapiens, UniProt P05177)
T2 sequence (P05177 whole entry): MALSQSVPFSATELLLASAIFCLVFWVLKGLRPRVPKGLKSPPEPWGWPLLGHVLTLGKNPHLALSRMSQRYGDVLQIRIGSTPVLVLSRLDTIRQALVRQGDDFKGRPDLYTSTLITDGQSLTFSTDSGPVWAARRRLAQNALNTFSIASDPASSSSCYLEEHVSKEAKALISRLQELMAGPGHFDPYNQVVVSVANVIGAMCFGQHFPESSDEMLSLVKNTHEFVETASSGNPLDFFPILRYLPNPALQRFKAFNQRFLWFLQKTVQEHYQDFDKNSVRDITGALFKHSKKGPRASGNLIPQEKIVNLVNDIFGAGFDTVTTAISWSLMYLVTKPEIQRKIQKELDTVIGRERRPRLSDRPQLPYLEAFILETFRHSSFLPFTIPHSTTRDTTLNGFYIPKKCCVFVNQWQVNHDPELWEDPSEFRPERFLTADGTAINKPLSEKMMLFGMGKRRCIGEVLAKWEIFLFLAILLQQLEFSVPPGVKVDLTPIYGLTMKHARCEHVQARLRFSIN

[3] = molecular target: T3, Estrogen receptor (Homo sapiens, UniProt P03372); experiment: biochemical
T3 sequence (P03372 whole entry): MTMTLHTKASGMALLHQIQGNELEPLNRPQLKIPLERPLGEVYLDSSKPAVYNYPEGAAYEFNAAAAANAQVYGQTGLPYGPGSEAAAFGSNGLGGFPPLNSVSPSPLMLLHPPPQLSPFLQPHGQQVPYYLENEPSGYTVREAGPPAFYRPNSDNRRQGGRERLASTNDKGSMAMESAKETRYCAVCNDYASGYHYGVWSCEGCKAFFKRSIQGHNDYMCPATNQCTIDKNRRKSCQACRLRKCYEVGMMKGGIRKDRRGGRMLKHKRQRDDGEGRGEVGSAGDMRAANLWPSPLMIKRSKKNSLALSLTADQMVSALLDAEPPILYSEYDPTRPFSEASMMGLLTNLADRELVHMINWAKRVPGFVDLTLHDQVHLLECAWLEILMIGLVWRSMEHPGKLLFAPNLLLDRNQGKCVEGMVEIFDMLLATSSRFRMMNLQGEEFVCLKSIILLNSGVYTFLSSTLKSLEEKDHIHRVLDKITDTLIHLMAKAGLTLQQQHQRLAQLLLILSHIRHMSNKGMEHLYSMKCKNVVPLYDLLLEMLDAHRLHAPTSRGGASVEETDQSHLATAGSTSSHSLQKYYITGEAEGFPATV

[4] = molecular target: Cytochrome P450 3A4 (Homo sapiens, UniProt P08684)
Chain of Cytochrome P450 3A4 (P08684 whole entry): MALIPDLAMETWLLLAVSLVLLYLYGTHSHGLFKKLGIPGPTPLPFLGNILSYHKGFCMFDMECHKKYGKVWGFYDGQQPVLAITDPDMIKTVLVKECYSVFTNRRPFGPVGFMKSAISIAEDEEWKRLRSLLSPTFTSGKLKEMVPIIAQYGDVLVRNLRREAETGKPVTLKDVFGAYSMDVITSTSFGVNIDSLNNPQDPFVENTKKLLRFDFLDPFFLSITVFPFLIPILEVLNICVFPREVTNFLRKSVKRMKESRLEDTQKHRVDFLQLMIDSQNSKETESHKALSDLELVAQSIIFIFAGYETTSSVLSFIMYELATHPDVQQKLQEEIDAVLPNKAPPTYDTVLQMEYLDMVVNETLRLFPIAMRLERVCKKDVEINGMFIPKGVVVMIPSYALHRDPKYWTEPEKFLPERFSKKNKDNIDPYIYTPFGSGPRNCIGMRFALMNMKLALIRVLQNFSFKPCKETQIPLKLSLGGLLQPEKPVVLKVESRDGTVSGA

| Structure (SMILES) | IC50 [1] [nM] | Ki [1] [nM] | IC50 [2] [nM] | IC50 [3] [nM] | Ki [3] [nM] | IC50 [4] [nM] |
| --- | --- | --- | --- | --- | --- | --- |
| S=C=Nc1cccc2ccccc12 [1-NAPHTHYLISOTHIOCYANATE] | 25500 | 17000 | 1000 | – | – | – |
| C[C@]12CC[C@@H]3c4ccc(OC(=O)c5ccccc5)cc4CC[C@H]3[C@@H]1CC[C@@H]2O [ESTRADIOL BENZOATE] | 10 | 6.98 | – | 65 | 18 | – |
| CN(C)c1ccc(C(=C2C=CC(=[N+](C)C)C=C2)c2ccc(N(C)C)cc2)cc1.[Cl-] [GENTIAN VIOLET] | 5570 | 3710 | – | – | – | – |
| C#C[C@]1(O)CC[C@H]2[C@@H]3CCc4cc(OC)ccc4[C@H]3CC[C@@]21C [MESTRANOL] | – | – | – | 18 | 5.22 | – |
| CC(=O)Nc1cccc(O)c1 [METACETAMOL] | – | – | 2000 | – | – | – |
| CC(C)(C(=O)c1cccnc1)c1cccnc1 [METYRAPONE] | – | – | – | – | – | 800 |
